According to patent US11612607B2, “Fenoldopam topical formulations for treating skin disorders” (TARO PHARMACEUTICAL INDUSTRIES LTD., priority 2016, dated 2023):

Assays:
IL-17 = test: First animal study: IL-17 in skin homogenates (ELISA); assay type: in vivo, BALB/c mice; settings: vs. IMQ group
Excerpt: (§1) The effect of topical compositions on the treatment of psoriasis has been tested in two animal studies. In both studies, typical features of psoriasis, namely erythema, scaling, and skin thickness, were induced by the application of 5% w/w imiquimod (IMQ) cream on the dorsal skin of BALB/c mice over a period of 6 consecutive days. Animals that developed psoriasis-like symptoms were used for studying the efficacy of the fenoldopam topical compositions. In the fenoldopam-treated groups, the animals received imiquimod only for the first two days. From the third day of the study, the animals received imiquimod and fenoldopam for the next four days. First Animal Study: The different treatment groups of mice used in the first animal study were as following: the SHAM group in the study represents mice which were shaven on the dorsal side without any treatment; negative control group represents the typical psoriatic model induced by imiquimod 5% (IMQ); positive control group represents the mice induced with psoriasis by imiquimod and then treated with the marketed steroid betamethasone valerate (IMQ BMV); and treatment groups represent the mice induced with psoriasis by imiquimod and then treated with a topical dose of 1 mg/cm^2 fenoldopam using different compositions of fenoldopam, such as solution (IMQ FD), water-washable ointment (IMQ WB 45/55), or anhydrous gel (IMQ AG BHT) compositions.
(§2) An IMQ-induced psoriasis model reproduces biochemical and histopathological parameters characteristic of human psoriatic lesions. Topical application of the IMQ cream increased levels of cytokines such as IL-23, TNF-α, and IL-17 in the treated skin tissues. The skin homogenates obtained from mice of different groups were analyzed using ELISA for quantification of IL-17, IL-23, and TNF-α, levels as the selected interleukins are the typical inflammatory markers of psoriasis. […] The effect of fenoldopam was as effective as the reference topical treatment with the marketed steroid.

[1] = Fenoldopam stability in solutions at different pH after 72 hours (Mass spectrometry); assay type: physicochemical
Experimental: FIGS. 1a-1e depict the effect of pH on fenoldopam stability. FIGS. 1a-e depict fenoldopam stability in solutions at different pH levels as determined by Mass Spectra (MS). Fenoldopam samples at a pH of 2.5 (FIG. 1a) and samples which were adjusted to a pH of 3.6 (FIG. 1b), 6.6 (FIG. 1c) and 7.2 (FIG. 1d) with NaOH were maintained for 72 hours, after which MS analysis was performed. FIG. 1e depicts the possible degradation products of fenoldopam obtained following exposure to a pH above 4.
Additional fenoldopam samples (Samples A3-D3) were maintained at a pH of 2.5, 3.6, 6.6 and 7.2 without adjustment back to pH 2.5 and were analyzed after 72 hours by HPLC at 225 nm and Mass spectrometry (MS).

IL-23 = test: First animal study: IL-23 in skin homogenates (ELISA); assay type: in vivo, BALB/c mice; settings: vs. IMQ group
Excerpt: as §1, §2

[2] = Stability of fenoldopam in solution at different pH values (HPLC, UV detector 225 nm); assay type: physicochemical
Experimental: In order to evaluate the stability of fenoldopam in solutions maintained at various pHs above 4 and further solutions that were further adjusted back to an acidic pH, the following experiment was conducted. Fenoldopam mesylate was first dissolved in buffer phosphate at pH 2.5, in a concentration of 0.1 mg/mL (sample A). The solution was then divided into 5 samples:
Sample A: remains at pH 2.5
Sample B: pH was adjusted to pH 3.6 with NaOH.
Sample C: pH was adjusted to pH 6.6 with NaOH.
Sample D: pH was adjusted to pH 7.2 with NaOH.
Sample E: pH was adjusted to pH 9.3 with NaOH.
All samples were then analyzed by HPLC and UV detector at 225 nm. Table 1 represents the results obtained by the HPLC analysis conducted with the different fenoldopam samples.

TNF-α = test: First animal study: TNF-α in skin homogenates (ELISA); assay type: in vivo, BALB/c mice; settings: vs. IMQ group
Excerpt: as §1, §2

Oc1ccc(C2CNCCc3c2cc(O)c(O)c3Cl)cc1 (stereo not drawn) [Fenoldopam, 6-chloro-2,3,4,5-tetrahydro-1-(4-hydroxyphenyl)-[1H]-3-benzazepine-7,8-diol, methane sulfonate]
Level of IL-17 (IL-17): inhibited | Stability by MS analysis ([1]; pH of 2.5 and 3.6, after 3 days): stable after 3 days and showed a single peak | Stability by MS analysis ([1]; pH of 6.6 and 7.2, after 3 days): formation of several peaks after 3 days | Level of IL-23 (IL-23): inhibited | RRT-0.9 (%) ([2]; Sample B1: pH 3.6 for 12 hours, then back to pH 2.5 for additional 5 hours): 0.9% | RRT-0.9 (%) ([2]; Sample B2: pH 3.6 for 12 hours, then back to pH 2.5 for additional 48 hours): 0.9% | RRT-0.9 (%) ([2]; Sample B3: pH 3.6 for 72 hours without adjustment back to pH 2.5): 1.0% | RRT-0.9 (%) ([2]; Sample B: pH 3.6 for 12 hours, 0.1 mg/mL, room temperature, protected from light): 0.9% | RRT-0.9 (%) ([2]; Sample C1: pH 6.6 for 12 hours, then back to pH 2.5 for additional 5 hours): 4.0% | RRT-0.9 (%) ([2]; Sample C2: pH 6.6 for 12 hours, then back to pH 2.5 for additional 48 hours): 4.0% | fenoldopam degraded ([2]; Sample C3: 72 hours at pH 6.6): 18% | RRT-0.9 (%) ([2]; Sample C3: pH 6.6 for 72 hours without adjustment back to pH 2.5): 17.5% | RRT-0.9 (%) ([2]; Sample C: pH 6.6 for 12 hours): 4.9% | RRT-0.9 (%) ([2]; Sample D1: pH 7.2 for 12 hours, then pH 2.5 for additional 5 hours): 11.6% | RRT-0.9 (%) ([2]; Sample D2: pH 7.2 for 12 hours, then back to pH 2.5 for additional 48 hours): 11.5% | fenoldopam degraded ([2]; Sample D3: 72 hours at pH 7.2): 50% | RRT-0.9 (%) ([2]; Sample D3: pH 7.2 for 72 hours without adjustment back to pH 2.5): 49.8% | RRT-0.9 (%) ([2]; Sample D: pH 7.2 for 12 hours): 15.8% | Fenoldopam, (%) ([2]; Sample E1: pH 9.3 for 12 hours, then pH 2.5 for additional 5 hours): 2% | Fenoldopam, (%) ([2]; Sample E2: pH 9.3 for 12 hours, then pH 2.5 for additional 48 hours): 2.2% | Fenoldopam, (%) ([2]; Sample E3: pH 9.3 for 72 hours without adjustment back to pH 2.5): No main peak | Fenoldopam, (%) ([2]; Sample E: pH 9.3 for 12 hours): No main peak | RRT-0.9 impurity ([2]; Samples B, B1, B2 (12 hours at pH 3.6, then pH 2.5) and B3 (72 hours at pH 3.6)): less than 1% | RRT-0.9 impurity ([2]; Samples C, C1 and C2 (12 hours at pH 6.6 followed by adjustment back to pH 2.5)): 4% | minor peak of fenoldopam ([2]; Samples E, E1, E2 and E3 (pH 9.3)): ~2% | Appearance of solution ([2]; pH 3.6): pH 3.6 - Clear | Appearance of solution ([2]; pH 6.6): pH 6.6 - yellowish | Appearance of solution ([2]; pH 7.2): pH 7.2 - yellowish | Appearance of solution ([2]; pH 9.3): pH 9.3- yellowish | Level of TNF-α (TNF-α): inhibited
